Results published in patent publication US7060822B1, “2-pyrazolin-5-ones” (Abbott GmbH & Co. KG, priority 1999, dated 2006).

SMILES | melting point
Cc1[nH]c(C=C2C(=O)NN=C2c2cnccn2)c(C)c1C(=O)CN(C)C.Cl | > 300 °C (dec.)
O=C1NN=C(c2cccnc2)C1=Cc1c[nH]c2ccccc12 | 305 to 307 °C
O=C1NN=C(c2cccnc2)C1=Cc1cc2ccccc2[nH]1 | 155 to 157 °C
O=C1NN=C(c2cccnc2)C1=Cc1c[nH]c2ncccc12 | 212 to 215 °C
Cc1cc(C)c(C=C2C(=O)NN=C2c2cccnc2)[nH]1 | 235 to 238 °C
Cc1ccc(C=C2C(=O)NN=C2c2cccnc2)[nH]1 | 210 to 212 °C
Cc1cc(C=C2C(=O)NN=C2C2CC2)[nH]c1C [Example 1, 3-Cyclopropyl-4-[(4,5-dimethylpyrrol-2-yl)methylene]-2-pyrazolin-5-one] | 220 to 222 °C
O=C1NN=C(Cc2ccccc2)C1=Cc1ccc[nH]1 [Example 2, 3-Benzyl-4-[(pyrrol-2-yl)methylene]-2-pyrazolin-5-one] | 182 to 184 °C
COc1ccc(OCC2=NNC(=O)C2=Cc2ccc[nH]2)cc1 [Example 3, 3-(4-Methoxyphenyloxymethyl)-4-[(pyrrol-2-yl)methylene]-2-pyrazolin-5-one] | 177 to 180 °C
O=C1NN=C(COc2ccccc2)C1=Cc1ccc[nH]1 [Example 4, 3-Phenyloxymethyl-4-[(pyrrol-2-yl)methylene]-2-pyrazolin-5-one] | 163 to 165 °C
O=C1NN=C(COc2ccc(Cl)cc2)C1=Cc1ccc[nH]1 [Example 5, 3-(4-Chlorophenyloxymethyl)-4-[(pyrrol-2-yl)methylene]-2-pyrazolin-5-one] | 218 to 222 °C

Other lines, results leading:

melting point | SMILES
173 to 175 °C | O=C1NN=C([C@@H]2C[C@H]2c2ccccc2)C1=Cc1ccc[nH]1 (relative stereo) [Example 106, 3-(trans-2-phenylcyclopropyl)-4-[(pyrrol-2-yl)methylene]-2-pyrazolin-5-one]
280 to 282 °C | O=C1NN=C([C@@H]2C[C@H]2c2ccccc2)C1=Cc1c[nH]c2ccccc12 (relative stereo) [Example 285, 4-[(Indol-3-yl)methylene]-3-(trans-2-phenyl-1-cyclopropyl)-2-pyrazolin-5-one]
179 to 180 °C | COc1ccc(CC2=NNC(=O)C2=Cc2ccc[nH]2)cc1 [Example 6, 3-(4-Methoxybenzyl)-4-[(pyrrol-2-yl)methylene]-2-pyrazolin-5-one]
270 to 272 °C | Cc1c(CCC(=O)O)c[nH]c1C=C1C(=O)NN=C1Cc1ccccc1 [Example 7, 3-Benzyl-4-{[4-(2-carboxyethyl)-3-methylpyrrol-2-yl]methylene}-2-pyrazolin-5-one]
226 to 228 °C | Cc1c[nH]c(C=C2C(=O)NN=C2Cc2ccccc2)c1CCC(=O)O [Example 8, 3-Benzyl-4-{[3-(2-carboxyethyl)-4-methylpyrrol-2-yl]methylene}-2-pyrazolin-5-one]
207 to 210 °C | Cc1ccc(OCC2=NNC(=O)C2=Cc2ccc[nH]2)cc1 [Example 9, 3-(4-Methylphenyloxymethyl)-4-[(pyrrol-2-yl)methylene]-2-pyrazolin-5-one]
172 to 174 °C | CC(C)OC1=NNC(=O)C1=Cc1ccc[nH]1 [Example 11, 3-Isopropoxy-4-[(pyrrol-2-yl)methylene]-2-pyrazolin-5-one]
145 to 147 °C | O=C1NN=C(CCc2ccccc2)C1=Cc1ccc[nH]1 [Example 12, 3-Phenylethyl-4-[(pyrrol-2-yl)methylene]-2-pyrazolin-5-one]
285 to 287 °C | O=C1NN=C(Nc2ccccc2)C1=Cc1ccc[nH]1 [Example 13, 3-Phenylamino-4-[(pyrrol-2-yl)methylene]-2-pyrazolin-5-one]
254 to 255 °C | Cc1ccc(CC2=NNC(=O)C2=Cc2ccc[nH]2)cc1 [Example 14, 3-(4-Methylbenzyl)-4-[(pyrrol-2-yl)methylene]-2-pyrazolin-5-one]
